Reference: patent publication US20220395472A1 (Dermavant Sciences GmbH, priority 2021, published 2022)

System: adults with plaque psoriasis
Assay: Long-term extension study (PSOARING 3): % BSA affected
Assay type: in vivo, human
Experimental: The % BSA affected is an estimate of the percentage of total involved skin with psoriasis. For the purpose of clinical estimation, the total palmar surface of the subject's palm and digits was assumed to be approximately equivalent to 1% BSA. The % BSA affected by psoriasis was evaluated (from 0% to 100%). Details on calculation of approximate % BSA involvement in each subject (total and individual) can be found in Appendix 2 of the protocol. Percent BSA is a static assessment made without reference to previous scores.
At Screening, Baseline, and for all efficacy assessments, lesions on the subject's scalp, palms, fingernails, toenails, and soles were not included in the calculation of % BSA affected as these areas were excluded from the efficacy analyses.

[1] = Week 16 LOCF, Tapinarof (Pivotal)
[2] = Week 16 LOCF, Vehicle (Pivotal)
[3] = Week 16 OC, Tapinarof (Pivotal)
[4] = Week 40 LOCF, Tapinarof (Pivotal)
[5] = Week 40 LOCF, Vehicle (Pivotal)
[6] = Week 40 OC, Tapinarof (Pivotal)

CC(C)c1c(O)cc(/C=C/c2ccccc2)cc1O [Tapinarof Cream 1%]
% BSA affected, Observed, Mean (Baseline, Overall): 4.65 % BSA | % BSA affected, Observed, Median (Baseline, Overall): 3.00 % BSA | % BSA affected, Observed, Mean (Baseline, Tapinarof (Pivotal)): 3.31 % BSA | % BSA affected, Observed, Median (Baseline, Tapinarof (Pivotal)): 2.00 % BSA | % BSA affected, CFBL, Mean (Week 16 LOCF, Overall): −1.85 % BSA | % BSA affected, CFBL, Median (Week 16 LOCF, Overall): −0.96 % BSA | % BSA affected, Observed, Mean (Week 16 LOCF, Overall): 2.82 % BSA | % BSA affected, Observed, Median (Week 16 LOCF, Overall): 1.20 % BSA | % BSA affected, Percent CFBL, Mean (Week 16 LOCF, Overall): −20.99% | % BSA affected, Percent CFBL, Median (Week 16 LOCF, Overall): −46.13% | % BSA affected, CFBL, Mean [1]: −0.77 % BSA | % BSA affected, CFBL, Median [1]: −0.20 % BSA | % BSA affected, Observed, Mean [1]: 2.54 % BSA | % BSA affected, Observed, Median [1]: 1.00 % BSA | % BSA affected, Percent CFBL, Mean [1]: −5.67% | % BSA affected, Percent CFBL, Median [1]: −33.33% | % BSA affected, CFBL, Mean [2]: −3.96 % BSA | % BSA affected, CFBL, Median [2]: −2.98 % BSA | % BSA affected, Observed, Mean [2]: 3.36 % BSA | % BSA affected, Observed, Median [2]: 1.80 % BSA | % BSA affected, Percent CFBL, Mean [2]: −47.15% | % BSA affected, Percent CFBL, Median [2]: −63.42% | % BSA affected, CFBL, Mean (Week 16 OC, Overall): −2.11 % BSA | % BSA affected, CFBL, Median (Week 16 OC, Overall): −1.00 % BSA | % BSA affected, Observed, Mean (Week 16 OC, Overall): 2.28 % BSA | % BSA affected, Observed, Median (Week 16 OC, Overall): 1.02 % BSA | % BSA affected, Percent CFBL, Mean (Week 16 OC, Overall): −31.25% | % BSA affected, Percent CFBL, Median (Week 16 OC, Overall): −50.00% | % BSA affected, CFBL, Mean [3]: −0.97 % BSA | % BSA affected, CFBL, Median [3]: −0.23 % BSA | % BSA affected, Observed, Mean [3]: 1.97 % BSA | % BSA affected, Observed, Median [3]: 1.00 % BSA | % BSA affected, Percent CFBL, Mean [3]: −18.46% | % BSA affected, Percent CFBL, Median [3]: −36.96% | % BSA affected, CFBL, Mean (Week 16 OC, Vehicle (Pivotal)): −4.40 % BSA | % BSA affected, CFBL, Median (Week 16 OC, Vehicle (Pivotal)): −3.18 % BSA | % BSA affected, Observed, Mean (Week 16 OC, Vehicle (Pivotal)): 2.89 % BSA | % BSA affected, Observed, Median (Week 16 OC, Vehicle (Pivotal)): 1.50 % BSA | % BSA affected, Percent CFBL, Mean (Week 16 OC, Vehicle (Pivotal)): −53.18% | % BSA affected, Percent CFBL, Median (Week 16 OC, Vehicle (Pivotal)): −66.67% | % BSA affected, CFBL, Mean (Week 40 LOCF, Overall): −2.04 % BSA | % BSA affected, CFBL, Median (Week 40 LOCF, Overall): −1.00 % BSA | % BSA affected, Observed, Mean (Week 40 LOCF, Overall): 2.63 % BSA | % BSA affected, Observed, Median (Week 40 LOCF, Overall): 1.00 % BSA | % BSA affected, Percent CFBL, Mean (Week 40 LOCF, Overall): −16.29% | % BSA affected, Percent CFBL, Median (Week 40 LOCF, Overall): −55.78% | % BSA affected, CFBL, Mean [4]: −0.88 % BSA | % BSA affected, CFBL, Median [4]: −0.30 % BSA | % BSA affected, Observed, Mean [4]: 2.44 % BSA | % BSA affected, Observed, Median [4]: 1.00 % BSA | % BSA affected, Percent CFBL, Mean [4]: −0.11% | % BSA affected, Percent CFBL, Median [4]: −46.61% | % BSA affected, CFBL, Mean [5]: −4.33 % BSA | % BSA affected, CFBL, Median [5]: −3.30 % BSA | % BSA affected, Observed, Mean [5]: 2.99 % BSA | % BSA affected, Observed, Median [5]: 1.00 % BSA | % BSA affected, Percent CFBL, Mean [5]: −43.91% | % BSA affected, Percent CFBL, Median [5]: −75.06% | % BSA affected, CFBL, Mean (Week 40 OC, Overall): −2.35 % BSA | % BSA affected, CFBL, Median (Week 40 OC, Overall): −1.50 % BSA | % BSA affected, Observed, Mean (Week 40 OC, Overall): 1.85 % BSA | % BSA affected, Observed, Median (Week 40 OC, Overall): 0.72 % BSA | % BSA affected, Percent CFBL, Mean (Week 40 OC, Overall): −35.43% | % BSA affected, Percent CFBL, Median (Week 40 OC, Overall): −67.00% | % BSA affected, CFBL, Mean [6]: −0.93 % BSA | % BSA affected, CFBL, Median [6]: −0.49 % BSA | % BSA affected, Observed, Mean [6]: 1.75 % BSA | % BSA affected, Observed, Median [6]: 0.68 % BSA | % BSA affected, Percent CFBL, Mean [6]: −21.60% | % BSA affected, Percent CFBL, Median [6]: −57.39% | % BSA affected, CFBL, Mean (Week 40 OC, Vehicle (Pivotal)): −5.30 % BSA | % BSA affected, CFBL, Median (Week 40 OC, Vehicle (Pivotal)): −4.49 % BSA | % BSA affected, Observed, Mean (Week 40 OC, Vehicle (Pivotal)): 2.07 % BSA | % BSA affected, Observed, Median (Week 40 OC, Vehicle (Pivotal)): 0.80 % BSA | % BSA affected, Percent CFBL, Mean (Week 40 OC, Vehicle (Pivotal)): −60.22% | % BSA affected, Percent CFBL, Median (Week 40 OC, Vehicle (Pivotal)): −86.06%
